Measured values published in patent publication US6680282B2 (priority 1997, dated 2004).

How the values were obtained:
Pyricularia oryzae [1] = assay: whole plant or invertebrate; type: in vivo; conditions: for rank (control effect, protective value from lesion number): 100 ppm spray, rice seedling (Jikkoku) 4-leaf stage, lesion number on fourth leaf 6 days after inoculation; for pest or weed control at 100 ppm: Pyricularia oryzae, foliar, 144 h, read-out: rank (control effect, protective value from lesion number)
Sphaerotheca fuliginea = assay: Test for control effect against powdery mildew of Cucurbitaceae (spray on cucumber seedlings); type: in vivo; conditions: 200 ppm spray, cucumber first foliage leaf, 10 days after inoculation
Text: Test for Control Effect Against Powdery Mildew of Cucurbitaceae
A spray liquid comprising a test compound whose concentration was adjusted to be 200 ppm by dilution with water was sprayed to a cucumber grown in a vinyl pot of 3 cm in diameter when its first foliage leaf was developed. The air-dried cucumber seedling was inoculated with a conidium suspension of Sphaerotheca fuliginea. Thereafter, the cucumber seedling was transferred in an air-conditioned greenhouse. 10 Days after the inoculation, the disease severity was observed. The protective value was calculated by comparing the disease severity in a treated area with that in an untreated area. Then, control effect was ranked according to the following criterion.
B; protective value 50 to 79%

Cochlioborus miyabeanus = type: cell-based; conditions: 100 ppm in potato dextrose agar, 28 or 22° C., 48 hours
Pyricularia oryzae [2] = type: cell-based; conditions: 100 ppm in potato dextrose agar, 28 or 22° C., 48 hours
Rhizoctonia solani = type: cell-based; conditions: 100 ppm in potato dextrose agar, 28 or 22° C., 48 hours
Procedure: (§1) Test for Antifungal Activity
(§2) A test compound dissolved in acetone was mixed in a potato dextrose agar medium (manufactured by Nissui Seiyaku K. K.) so that the final concentration of the test compound was 100 ppm and then poured in a Petri dish. To this Perti dish after the agar was completely solidified, a cylindrical section prepared by punching a mycelial colony of each of plant pathogenic fungi cultured in another Petri dish by means of a cork borer was inoculated and cultured at 28 or 22° C. 48 Hours after the inoculation, the diameter of the mycelial colony was determined. Control percentages were calculated by comparing the diameter of the mycelial colony in a treated area with that in an untreated area. And, antifungal effect was ranked according to the following criterion.
(§3) A; control percentage ≧80%
(§4) B; control percentage 50 to 79%
(§5) C; control percentage <50%

Sclerotinia minor = type: cell-based; conditions: 100 ppm in potato dextrose agar, 28 or 22° C., 48 hours
Procedure: as §1, §2, §3, §4, §5

[3] = tested on: Colletotrichum atramentarium; type: cell-based; conditions: 100 ppm in potato dextrose agar, 28 or 22° C., 48 hours
Procedure: as §1, §2, §3, §4, §5

Gibberella fujikuroi = type: cell-based; conditions: 100 ppm in potato dextrose agar, 28 or 22° C., 48 hours
Procedure: as §1, §2, §3, §4, §5

Verticillium aibo-atrum = type: cell-based; conditions: 100 ppm in potato dextrose agar, 28 or 22° C., 48 hours
Procedure: as §1, §2, §3, §4, §5

[4] = tested on: Alternaria alternata Japanese pear pathotype; type: cell-based; conditions: 100 ppm in potato dextrose agar, 28 or 22° C., 48 hours
Procedure: as §1, §2, §3, §4, §5

[5] = tested on: Fusarium oxysporum f. sp. lycopersici; type: cell-based; conditions: 100 ppm in potato dextrose agar, 28 or 22° C., 48 hours
Procedure: as §1, §2, §3, §4, §5

Glomerella cingalata = type: cell-based; conditions: 100 ppm in potato dextrose agar, 28 or 22° C., 48 hours
Procedure: as §1, §2, §3, §4, §5

Botrytis cinerea = type: cell-based; conditions: 100 ppm in potato dextrose agar, 28 or 22° C., 48 hours
Procedure: as §1, §2, §3, §4, §5

Compound: CC(=O)Oc1c(C)c(C)nc2c(C)cc(Br)cc12 [compound 195]
- rank (control effect, protective value from lesion number) (Pyricularia oryzae [1]): A (protective value ≧80%)
- rank (control effect, protective value from disease severity) (Sphaerotheca fuliginea): A (protective value ≧80%)

Compound: CCC(C)c1ccc2nc(C)c(C)c(OC(C)=O)c2c1 (centres unmarked) [compound 55]
- rank (control effect, protective value from lesion number) (Pyricularia oryzae [1]): A (protective value ≧80%)
- rank (control effect, protective value from disease severity) (Sphaerotheca fuliginea): A (protective value ≧80%)

Compound: CCOC(=O)Oc1c(C)c(C)nc2ccc(C(C)CC)cc12 (centres unmarked) [compound 66]
- rank (control effect, protective value from lesion number) (Pyricularia oryzae [1]): A (protective value ≧80%)
- rank (control effect, protective value from disease severity) (Sphaerotheca fuliginea): A (protective value ≧80%)

Compound: CC(=O)Oc1c(C)c(C)nc2ccc(Br)c(C)c12 [compound 197]
- rank (control effect, protective value from lesion number) (Pyricularia oryzae [1]): A (protective value ≧80%)
- rank (control effect, protective value from disease severity) (Sphaerotheca fuliginea): A (protective value ≧80%)

Compound: CCCCc1cc(Cl)c2nc(C)c(C)c(OC(C)=O)c2c1 [Compound No. 216]
- rank (control effect, protective value from lesion number) (Pyricularia oryzae [1]): A (protective value ≧80%)
- rank (control effect, protective value from disease severity) (Sphaerotheca fuliginea): B (protective value 50 to 79%)

Compound: CCCCc1ccc2nc(C)c(C)c(OC(=O)C3CC3)c2c1 [compound 31]
- rank (antifungal effect, control percentage of mycelial colony diameter) (Cochlioborus miyabeanus): A (control percentage ≧80%)
- rank (antifungal effect, control percentage of mycelial colony diameter) (Pyricularia oryzae [2]): A (control percentage ≧80%)
- rank (control effect, protective value from lesion number) (Pyricularia oryzae [1]): A (protective value ≧80%)
- rank (antifungal effect, control percentage of mycelial colony diameter) (Rhizoctonia solani): C (control percentage <50%)
- rank (antifungal effect, control percentage of mycelial colony diameter) (Sclerotinia minor): B (control percentage 50 to 79%)
- rank (antifungal effect, control percentage of mycelial colony diameter) [3]: A (control percentage ≧80%)
- rank (antifungal effect, control percentage of mycelial colony diameter) (Gibberella fujikuroi): A (control percentage ≧80%)
- rank (antifungal effect, control percentage of mycelial colony diameter) (Verticillium aibo-atrum): A (control percentage ≧80%)
- rank (antifungal effect, control percentage of mycelial colony diameter) [4]: A (control percentage ≧80%)
- rank (antifungal effect, control percentage of mycelial colony diameter) [5]: A (control percentage ≧80%)
- rank (antifungal effect, control percentage of mycelial colony diameter) (Glomerella cingalata): A (control percentage ≧80%)
- rank (antifungal effect, control percentage of mycelial colony diameter) (Botrytis cinerea): A (control percentage ≧80%)

Compound: CCC(C)c1ccc2nc(C)c(C)c(OC(=O)N(CC)CC)c2c1 (centres unmarked) [compound 72]
- rank (control effect, protective value from lesion number) (Pyricularia oryzae [1]): B (protective value 50 to 79%)
- rank (control effect, protective value from disease severity) (Sphaerotheca fuliginea): A (protective value ≧80%)

Compound: CCc1cc(CC)c2nc(C)c(C)c(OC(C)=O)c2c1 [Compound No. 268]
- rank (control effect, protective value from lesion number) (Pyricularia oryzae [1]): A (protective value ≧80%)
- rank (control effect, protective value from disease severity) (Sphaerotheca fuliginea): B (protective value 50 to 79%)

Compound: CCC(C)c1ccc2nc(C)c(C)c(OC(=O)OC)c2c1 (centres unmarked) [compound 65]
- rank (control effect, protective value from lesion number) (Pyricularia oryzae [1]): A (protective value ≧80%)
- rank (control effect, protective value from disease severity) (Sphaerotheca fuliginea): A (protective value ≧80%)

Compound: CC(=O)Oc1c(C)c(C)nc2ccc(CC(C)C)cc12 [compound 93]
- rank (control effect, protective value from lesion number) (Pyricularia oryzae [1]): A (protective value ≧80%)
- rank (control effect, protective value from disease severity) (Sphaerotheca fuliginea): A (protective value ≧80%)

Compound: CC(=O)Oc1c(C)c(C)nc2ccc(Oc3ccccc3)cc12 [Compound No. 136]
- rank (control effect, protective value from lesion number) (Pyricularia oryzae [1]): A (protective value ≧80%)
- rank (control effect, protective value from disease severity) (Sphaerotheca fuliginea): A (protective value ≧80%)

Compound: CCC(=O)Oc1c(C)c(C)nc2ccc(C(C)CC)cc12 (centres unmarked) [compound 56]
- rank (control effect, protective value from lesion number) (Pyricularia oryzae [1]): A (protective value ≧80%)
- rank (control effect, protective value from disease severity) (Sphaerotheca fuliginea): A (protective value ≧80%)

Compound: CCCCCCCCOC(=O)Oc1c(C)c(C)nc2ccc(C(C)CC)cc12 (centres unmarked) [compound 67]
- rank (control effect, protective value from lesion number) (Pyricularia oryzae [1]): A (protective value ≧80%)
- rank (control effect, protective value from disease severity) (Sphaerotheca fuliginea): A (protective value ≧80%)

Compound: CCC(C)c1cc(CCl)c2nc(C)c(C)c(OC(C)=O)c2c1 (centres unmarked) [Compound No. 344, 4-acetoxy-6-s-butyl-8-chloromethyl-2,3-dimethylquinoline]
- pest or weed control at 100 ppm (Pyricularia oryzae [1]): > 80%
- rank (control effect, protective value from disease severity) (Sphaerotheca fuliginea): A (protective value ≧80%)

Compound: CC(=O)Oc1c(C)c(C)nc2c(Cl)cc(C(C)(C)C)cc12 [Compound No. 218]
- rank (control effect, protective value from lesion number) (Pyricularia oryzae [1]): A (protective value ≧80%)
- rank (control effect, protective value from disease severity) (Sphaerotheca fuliginea): A (protective value ≧80%)

Compound: CCC(C)c1cc(Cl)c2nc(C)c(C)c(OC(C)=O)c2c1 (centres unmarked) [Compound No. 214, 4-acetoxy-6-s-butyl-8-chloro-2,3-dimethylquinoline]
- pest or weed control at 100 ppm (Pyricularia oryzae [1]): > 80%
- rank (control effect, protective value from disease severity) (Sphaerotheca fuliginea): A (protective value ≧80%)

Compound: CCCCc1ccc2nc(C)c(C)c(O)c2c1 [Compound No. 28]
- rank (antifungal effect, control percentage of mycelial colony diameter) (Cochlioborus miyabeanus): C (control percentage <50%)
- rank (antifungal effect, control percentage of mycelial colony diameter) (Pyricularia oryzae [2]): B (control percentage 50 to 79%)
- rank (control effect, protective value from lesion number) (Pyricularia oryzae [1]): A (protective value ≧80%)
- rank (antifungal effect, control percentage of mycelial colony diameter) (Rhizoctonia solani): C (control percentage <50%)
- rank (antifungal effect, control percentage of mycelial colony diameter) (Sclerotinia minor): C (control percentage <50%)
- rank (antifungal effect, control percentage of mycelial colony diameter) [3]: B (control percentage 50 to 79%)
- rank (antifungal effect, control percentage of mycelial colony diameter) (Gibberella fujikuroi): C (control percentage <50%)
- rank (antifungal effect, control percentage of mycelial colony diameter) (Verticillium aibo-atrum): A (control percentage ≧80%)
- rank (antifungal effect, control percentage of mycelial colony diameter) [4]: C (control percentage <50%)
- rank (antifungal effect, control percentage of mycelial colony diameter) [5]: C (control percentage <50%)
- rank (antifungal effect, control percentage of mycelial colony diameter) (Glomerella cingalata): B (control percentage 50 to 79%)
- rank (antifungal effect, control percentage of mycelial colony diameter) (Botrytis cinerea): C (control percentage <50%)

Compound: CC(=O)Oc1c(C)c(C)nc2ccc(Br)cc12 [compound 185]
- rank (control effect, protective value from lesion number) (Pyricularia oryzae [1]): B (protective value 50 to 79%)
- rank (control effect, protective value from disease severity) (Sphaerotheca fuliginea): A (protective value ≧80%)

Compound: CCC(C)c1ccc2nc(C)c(C)c(OC(=O)c3ccccc3)c2c1 (centres unmarked) [compound 61]
- rank (control effect, protective value from lesion number) (Pyricularia oryzae [1]): A (protective value ≧80%)
- rank (control effect, protective value from disease severity) (Sphaerotheca fuliginea): B (protective value 50 to 79%)

Compound: CCCCc1ccc2nc(C)c(C)c(OC(C)=O)c2c1 [Compound No. 29]
- rank (antifungal effect, control percentage of mycelial colony diameter) (Cochlioborus miyabeanus): B (control percentage 50 to 79%)
- rank (antifungal effect, control percentage of mycelial colony diameter) (Pyricularia oryzae [2]): A (control percentage ≧80%)
- rank (control effect, protective value from lesion number) (Pyricularia oryzae [1]): A (protective value ≧80%)
- rank (antifungal effect, control percentage of mycelial colony diameter) (Rhizoctonia solani): C (control percentage <50%)
- rank (antifungal effect, control percentage of mycelial colony diameter) (Sclerotinia minor): C (control percentage <50%)
- rank (antifungal effect, control percentage of mycelial colony diameter) [3]: B (control percentage 50 to 79%)
- rank (antifungal effect, control percentage of mycelial colony diameter) (Gibberella fujikuroi): B (control percentage 50 to 79%)
- rank (antifungal effect, control percentage of mycelial colony diameter) (Verticillium aibo-atrum): A (control percentage ≧80%)
- rank (antifungal effect, control percentage of mycelial colony diameter) [4]: C (control percentage <50%)
- rank (antifungal effect, control percentage of mycelial colony diameter) [5]: B (control percentage 50 to 79%)
- rank (antifungal effect, control percentage of mycelial colony diameter) (Glomerella cingalata): A (control percentage ≧80%)
- rank (antifungal effect, control percentage of mycelial colony diameter) (Botrytis cinerea): B (control percentage 50 to 79%)
- rank (control effect, protective value from disease severity) (Sphaerotheca fuliginea): B (protective value 50 to 79%)

Compound: CCC(C)c1cc(C=O)c2nc(C)c(C)c(OC(C)=O)c2c1 (centres unmarked) [Compound No. 356, 4-acetoxy-6-s-butyl-8-formyl-2,3-dimethylquinoline]
- pest or weed control at 100 ppm (Pyricularia oryzae [1]): > 80%
- rank (control effect, protective value from disease severity) (Sphaerotheca fuliginea): A (protective value ≧80%)

Compound: CC(=O)Oc1c(C)c(C)nc2ccc(C3CCCCC3)cc12 [Compound No. 112]
- rank (control effect, protective value from lesion number) (Pyricularia oryzae [1]): A (protective value ≧80%)
- rank (control effect, protective value from disease severity) (Sphaerotheca fuliginea): A (protective value ≧80%)

Compound: CC(=O)Oc1c(C)c(C)nc2ccc(OC(C)C)cc12 [compound 24]
- rank (control effect, protective value from lesion number) (Pyricularia oryzae [1]): B (protective value 50 to 79%)
- rank (control effect, protective value from disease severity) (Sphaerotheca fuliginea): A (protective value ≧80%)

Compound: CCc1ccc2nc(C)c(C)c(OC(C)=O)c2c1 [Compound No. 10]
- rank (antifungal effect, control percentage of mycelial colony diameter) (Cochlioborus miyabeanus): B (control percentage 50 to 79%)
- rank (antifungal effect, control percentage of mycelial colony diameter) (Pyricularia oryzae [2]): A (control percentage ≧80%)
- rank (control effect, protective value from lesion number) (Pyricularia oryzae [1]): A (protective value ≧80%)
- rank (antifungal effect, control percentage of mycelial colony diameter) (Rhizoctonia solani): C (control percentage <50%)
- rank (antifungal effect, control percentage of mycelial colony diameter) (Sclerotinia minor): C (control percentage <50%)
- rank (antifungal effect, control percentage of mycelial colony diameter) [3]: B (control percentage 50 to 79%)
- rank (antifungal effect, control percentage of mycelial colony diameter) (Gibberella fujikuroi): C (control percentage <50%)
- rank (antifungal effect, control percentage of mycelial colony diameter) (Verticillium aibo-atrum): C (control percentage <50%)
- rank (antifungal effect, control percentage of mycelial colony diameter) [4]: C (control percentage <50%)
- rank (antifungal effect, control percentage of mycelial colony diameter) [5]: C (control percentage <50%)
- rank (antifungal effect, control percentage of mycelial colony diameter) (Glomerella cingalata): B (control percentage 50 to 79%)
- rank (antifungal effect, control percentage of mycelial colony diameter) (Botrytis cinerea): C (control percentage <50%)
